Calls of active or inactive are those of the source. No rule for the calls is given here.
Tested on: rodent carcinogenicity bioassays, tumor incidence
Test: CCRIS carcinogenicity studies
Method in brief: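 Archive of carcinogenicity, mutagenicity, tumor promotion and tumor inhibition results drawn from journals, NCI reports and other sources, expert-reviewed; covers 1985-2011 and is no longer updated.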

Structure (SMILES): Nc1cc(Cl)cc(C(=O)O)c1Cl
- carcinogen call (Species: MOUSE, Strain/Sex: B6C3F1/FEMALE, Route: ORAL, Dose: 0, 10000, 20000 PPM IN DIET FOR 80 WK (STUDY DURATION: 91-92 WK), Dose: 0, 10000, 20000 PPM IN DIET FOR 80 WK (STUDY DURATION: 91-92 WK), Tumor Site: Type of Lesion: LIVER: HEPATOCELLULAR CARCINOMA): active; positive
- carcinogen call (Species: MOUSE, Strain/Sex: B6C3F1/MALE, Route: ORAL, Dose: 0, 10000, 20000 PPM IN DIET FOR 80 WK (STUDY DURATION: 91-92 WK), Dose: 0, 10000, 20000 PPM IN DIET FOR 80 WK (STUDY DURATION: 91-92 WK), Tumor Site: Type of Lesion: LIVER: HEPATOCELLULAR CARCINOMA): equivocal
- carcinogen call (Species: RAT, Strain/Sex: OSBORNE-MENDEL/FEMALE, Route: ORAL, Dose: 0, 10000, 20000 PPM IN DIET FOR 80 WK (STUDY DURATION: 112-113 WK ), Dose: 0, 10000, 20000 PPM IN DIET FOR 80 WK (STUDY DURATION: 112-113 WK )): inactive; negative
- carcinogen call (Species: RAT, Strain/Sex: OSBORNE-MENDEL/MALE, Route: ORAL, Dose: 0, 10000, 20000 PPM IN DIET FOR 80 WK (STUDY DURATION: 112-113 WK), Dose: 0, 10000, 20000 PPM IN DIET FOR 80 WK (STUDY DURATION: 112-113 WK)): inactive; negative

Structure (SMILES): O[C@@H]1[C@H]2O[C@H]2c2c(ccc3cc4ccc5ccccc5c4nc23)[C@H]1O
- carcinogen call (Species: MOUSE, Strain/Sex: CD-1/FEMALE, Route: INTRAPERITONEAL, Dose: 0, 175 NMOL (TOTAL DOSE) ADMINISTERED AS 1/7 OF DOSE WITHIN 24 HR AFTER BIRTH, 2/7 OF DOSE AT 8 D OLD, 4/7 OF DOSE AT 15, Tumor Site: Type of Lesion: LIVER: TUMOR, LUNG: TUMOR): active; positive
- carcinogen call (Species: MOUSE, Strain/Sex: CD-1/MALE, Route: INTRAPERITONEAL, Dose: 0, 175 NMOL (TOTAL DOSE) ADMINISTERED AS 1/7 OF DOSE WITHIN 24 HR AFTER BIRTH, 2/7 OF DOSE AT 8 D OLD, 4/7 OF DOSE AT 15, Tumor Site: Type of Lesion: LIVER: TUMOR, LUNG: TUMOR): active; positive

Structure (SMILES): O=C(O)Nc1ccc(-c2ccccc2)cc1
- carcinogen call (Species: RAT, Strain/Sex: STRAIN-CD/FEMALE, Route: INTRAPERITONEAL, Dose: 0, 100 UMOL/KG BW 2/WK FOR 6 WK (STUDY DURATION: 62 WK)): inactive; negative

Structure (SMILES): O=[N+]([O-])c1ccc(N=Nc2c(O)ccc3ccccc23)c(Cl)c1
- carcinogen call (Species: MOUSE, Strain/Sex: ICR/FEMALE, Route: DERMAL, Dose: 0, 1 MG IN 0.1 ML DISTILLED WATER 2/WK FOR A MEAN TOTAL DOSE OF 117.1 MG (STUDY DURATION: 18 MO)): inactive; negative
- carcinogen call (Species: MOUSE, Strain/Sex: ICR/MALE, Route: DERMAL, Dose: 0, 1 MG IN 0.1 ML DISTILLED WATER 2/WK FOR A MEAN TOTAL DOSE OF 117.1 MG (STUDY DURATION: 18 MO)): inactive; negative

Structure (SMILES): C=CBr
- carcinogen call (Species: RAT, Strain/Sex: SPRAGUE-DAWLEY/FEMALE, Route: INHALATION, Dose: 10, 50, 250, 1250 PPM 6 HR/D 5/WK FOR 24 MO, Dose: 10, 50, 250, 1250 PPM 6 HR/D 5/WK FOR 24 MO, Tumor Site: Type of Lesion: LIVER: ANGIOSARCOMA, EAR (ZYMBAL GLAND): SQUAMOUS CELL CARCINOMA): active; positive
- carcinogen call (Species: RAT, Strain/Sex: SPRAGUE-DAWLEY/MALE, Route: INHALATION, Dose: 10, 50, 250, 1250 PPM 6 HR/D 5/WK FOR 24 MO, Dose: 10, 50, 250, 1250 PPM 6 HR/D 5/WK FOR 24 MO, Tumor Site: Type of Lesion: LIVER: ANGIOSARCOMA, EAR (ZYMBAL GLAND): PAPILLOMA, SQUAMOUS CELL CARCINOMA): active; positive

Structure (SMILES): CS(=O)(=O)c1ccc([C@@H](O)[C@@H](CO)NC(=O)C(Cl)Cl)cc1
- carcinogen call (Species: RAT, Strain/Sex: F344/FEMALE, Route: ORAL, Dose: 0, 125, 250 PPM IN DRINKING WATER FOR 104 WK (STUDY DURATION: 108 WK), Dose: 0, 125, 250 PPM IN DRINKING WATER FOR 104 WK (STUDY DURATION: 108 WK)): inactive; negative
- carcinogen call (Species: RAT, Strain/Sex: F344/MALE, Route: ORAL, Dose: 0, 125, 250 PPM IN DRINKING WATER FOR 104 WK (STUDY DURATION: 108 WK), Dose: 0, 125, 250 PPM IN DRINKING WATER FOR 104 WK (STUDY DURATION: 108 WK)): inactive; negative

Structure (SMILES): COC(=O)c1cc(Oc2ccc(Cl)cc2Cl)ccc1[N+](=O)[O-]
- carcinogen call (Species: Mouse, Strain/Sex: B6C3F1/Female (60/sex/group), Route: Oral, Dose: 0, 50, 200, 1000 ppm in feed for 24 mo, Dose: 0, 50, 200, 1000 ppm in feed for 24 mo): inactive; negative; purity 98.3%
- carcinogen call (Species: Mouse, Strain/Sex: B6C3F1/Male (60/sex/group), Route: Oral, Dose: 0, 50, 200, 1000 ppm in feed for 24 mo, Dose: 0, 50, 200, 1000 ppm in feed for 24 mo, Tumor Site: Type of Lesion: Liver: Significant increase in hepatic adenomas and carcinomas at highest dose): active; positive; purity 98.3%
- carcinogen call (Species: Rat, Strain/Sex: Sprague-Dawley/Female (50/sex/group), Route: Oral, Dose: 0, 500, 1580, 5000 ppm in feed for 104 wk, Dose: 0, 500, 1580, 5000 ppm in feed for 104 wk): inactive; negative; purity 98%
- carcinogen call (Species: Rat, Strain/Sex: Sprague-Dawley/Male (50/sex/group), Route: Oral, Dose: 0, 500, 1580, 5000 ppm in feed for 104 wk, Dose: 0, 500, 1580, 5000 ppm in feed for 104 wk): inactive; negative; purity 98%

Structure (SMILES): O=C(O)C(Br)Br
- carcinogen call (Species: Mouse, Strain/Sex: B6C3F1/Female, Route: Oral, Dose: 0, 50, 500, 1,000 mg/l in drinking water for 2 yr, Dose: 0, 50, 500, 1,000 mg/l in drinking water for 2 yr, Tumor Site: Type of Lesion: Liver: Hepatocellular adenoma (19/49; 26/50; 32/50; 35/49), Hepatocellular carcinoma (3/49, 3/50, 12/50, 8/49), Hepatoce, Tumor Site: Type of Lesion: Liver: Hepatocellular adenoma (19/49; 26/50; 32/50; 35/49), Hepatocellular carcinoma (3/49, 3/50, 12/50, 8/49), Hepatoce): active; positive (ntp reports as clear evidence)
- carcinogen call (Species: Mouse, Strain/Sex: B6C3F1/Male, Route: Oral, Dose: 0, 50, 500, 1,000 mg/l in drinking water for 2 yr, Dose: 0, 50, 500, 1,000 mg/l in drinking water for 2 yr, Tumor Site: Type of Lesion: Liver: Hepatocellular adenoma (18/49; 37/50; 42/50), Hepatocellular carcinoma (14/49, 9/50, 19/50, 26/50), Hepato, Tumor Site: Type of Lesion: Liver: Hepatocellular adenoma (18/49; 37/50; 42/50), Hepatocellular carcinoma (14/49, 9/50, 19/50, 26/50), Hepato): active; positive (ntp reports as clear evidence)
- carcinogen call (Species: Rat, Strain/Sex: F344/N/Female, Route: Oral, Dose: 0, 50, 500, 1000 mg/l in drinking water for 2 yr, Dose: 0, 50, 500, 1000 mg/l in drinking water for 2 yr, Tumor Site: Type of Lesion: All organs: Mononuclear cell leukemia (11/50, 13/50, 16/50, 22/50)): active; positive trend (not statistically significant) (ntp reports as some evidence)
- carcinogen call (Species: Rat, Strain/Sex: F344/N/Male, Route: Oral, Dose: 0, 50, 500, 1000 mg/l in drinking water continuous for 2 yr, Dose: 0, 50, 500, 1000 mg/l in drinking water continuous for 2 yr, Tumor Site: Type of Lesion: All organs: Malignant mesothelioma (3/50, 1/50, 0/50, 10/50), Mononuclear cell leukemia (17/50, 31/50, 24/50, 13/50)): active; positive (malignant mesothelioma) (ntp reports as some evidence); mononuclear ce

Structure (SMILES): FC(F)=C(F)F
- carcinogen call (Species: MOUSE, Strain/Sex: B6C3F1/FEMALE, Route: INHALATION, Dose: 0, 312, 625, 1250 PPM 6 HR/D 5 D/WK FOR 95-96 WK (STUDY DURATION: 96 WK), Dose: 0, 312, 625, 1250 PPM 6 HR/D 5 D/WK FOR 95-96 WK (STUDY DURATION: 96 WK), Tumor Site: Type of Lesion: LIVER: HEMANGIOMA, HEMANGIOSARCOMA, HEPATOCELLULAR CARCINOMA, HEMATOPOIETIC SYSTEM: HISTIOCYTIC SARCOMA): active; positive
- carcinogen call (Species: MOUSE, Strain/Sex: B6C3F1/MALE, Route: INHALATION, Dose: 0, 312, 625, 1250 PPM 6 HR/D 5 D/WK FOR 95-96 WK (STUDY DURATION: 96 WK), Dose: 0, 312, 625, 1250 PPM 6 HR/D 5 D/WK FOR 95-96 WK (STUDY DURATION: 96 WK), Tumor Site: Type of Lesion: LIVER: HEMANGIOMA, HEMANGIOSARCOMA, HEPATOCELLULAR CARCINOMA, HEMATOPOIETIC SYSTEM: HISTIOCYTIC SARCOMA): active; positive
- carcinogen call (Species: RAT, Strain/Sex: F344/FEMALE, Route: INHALATION, Dose: 0, 312, 625, 1250 PPM 6 HR/D 5 D/WK FOR 104 WK (STUDY DURATION: 106 WK), Dose: 0, 312, 625, 1250 PPM 6 HR/D 5 D/WK FOR 104 WK (STUDY DURATION: 106 WK), Tumor Site: Type of Lesion: KIDNEY(RENAL TUBULE): ADENOMA, ADENOMA OR CARCINOMA, LIVER: HEMANGIOSARCOMA, HEPATOCELLULAR ADENOMA, HEPATOCELLULAR CARC): active; positive
- carcinogen call (Species: RAT, Strain/Sex: F344/MALE, Route: INHALATION, Dose: 0, 156, 312, 625 PPM 6 HR/D 5 D/WK FOR 104 WK (STUDY DURATION: 106 WK), Dose: 0, 156, 312, 625 PPM 6 HR/D 5 D/WK FOR 104 WK (STUDY DURATION: 106 WK), Tumor Site: Type of Lesion: KIDNEY(RENAL TUBULE): ADENOMA, LIVER: HEPATOCELLULAR CARCINOMA, HEPATOCELLULAR ADENOMA OR CARCINOMA): active; positive
